Columns and labels:
[1] = target: T1, human B1R receptor (bradykinin 1 receptor) (Homo sapiens, UniProt P46663); assay: FLIPR Ca2+ assay (Fluo-4) on CHO K1 cells stably transfected with the human B1R gene; % activation and % inhibition at 10 μM; type: cell-based; conditions: CHO-K1, test substance 10 μM; CHO K1 hB1R cells; Ca2+ inflow after 0.5 nM Lys-Des-Arg9-bradykinin; read-out: B1R antagonism, human [10 μM] % inhibition
T1 construct: host or cells: CHO K1 cells (hB1R cells)
T1 sequence (P46663 1-353): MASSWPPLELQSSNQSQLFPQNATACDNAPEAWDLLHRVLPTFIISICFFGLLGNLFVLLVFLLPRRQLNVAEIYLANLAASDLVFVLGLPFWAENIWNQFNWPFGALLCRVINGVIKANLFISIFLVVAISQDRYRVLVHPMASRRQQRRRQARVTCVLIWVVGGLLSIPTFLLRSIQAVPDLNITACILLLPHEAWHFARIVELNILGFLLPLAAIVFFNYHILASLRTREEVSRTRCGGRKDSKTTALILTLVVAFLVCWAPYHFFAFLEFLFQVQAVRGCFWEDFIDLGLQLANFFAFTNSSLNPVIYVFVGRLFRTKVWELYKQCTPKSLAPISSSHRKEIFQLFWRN
Experimental: (§1) The agonistic or antagonistic action of substances can be quantified on the bradykinin receptor 1 (B1R) of the species human and rat with ectopically expressing cell lines (CHO K1 cells) and with the aid of a Ca^2+-sensitive dye (Fluo-4) using a fluorescent imaging plate reader (FLIPR). The indication in % activation is based on the Ca^2+ signal after addition of Lys-Des-Arg^9-bradykinin (0.5 nM) or Des-Arg^9-bradykinin (100 nM). Antagonists result in a suppression of the Ca^2+ influx following administration of the agonist. The % inhibition in comparison with the maximum achievable inhibition is indicated.
(§2) Functional Investigation on the Bradykinin 1 Receptor (B1R)
(§3) The agonistic or antagonistic action of substances can be determined on the bradykinin 1 receptor (B1R) of the human and rat species with the following assay. According to this assay, the Ca^2+ inflow through the channel is quantified with the aid of a Ca^2+-sensitive dyes (Fluo-4 type, Molecular Probes Europe BV, Leiden, The Netherlands) in a fluorescent imaging plate reader (FLIPR, Molecular Devices, Sunnyvale, USA).
(§4) Chinese Hamster Ovary cells (CHO K1 cells) which are stably transfected with the human B1R gene (hB1R cells, Euroscreen s.a., Gosselies, Belgium) or the B1R gene of the rat (rB1R cells, Axxam, Milan, Italy) are used. For functional investigations, these cells are plated-out on black 96-well plates with a clear base (BD Biosciences, Heidelberg, Germany) in a density of 20,000-25,000 cells/well. Overnight, the cells are incubated at 37° C. and 5% CO2 in culture medium (hB1R cells: Nutrient Mixture Ham's F12, Gibco Invitrogen GmbH, Karlsruhe, Germany; rB1R cells: D-MEM/F12, Gibco Invitrogen, Karlsruhe, Germany) with 10 vol. % FBS (foetal bovine serum, Gibco Invitrogen GmbH, Karlsruhe, Germany). On the following day, the cells are loaded with 2.13 μM Fluo-4 (Molecular Probes Europe BV, Leiden, The Netherlands) in HBSS buffer (Hank's buffered saline solution, Gibco Invitrogen GmbH, Karlsruhe, Germany) […] (Sigma-Aldrich, Taufkirchen, Germany) and 10 mM HEPES (Sigma-Aldrich, Taufkirchen, Germany) for 60 min at 37° C. The plates are subsequently washed 2× with HBSS buffer, and HBSS buffer which additionally contains 0.1% BSA (bovine serum albumin; Sigma-Aldrich, Taufkirchen, Germany), 5.6 mM glucose and 0.05% gelatine (Merck KGaA, Darmstadt, Germany) is added. After a further incubation of 20 minutes at room temperature, the plates are inserted into the FLIPR for Ca^2+ measurement. The Ca^2+-dependent fluorescence is measured here before and after addition of substances (λex=488 nm, λem=540 nm). The quantification is effected by measurement of the highest fluorescence intensity (FC, fluorescence counts) over time.
(§5) The FLIPR protocol comprises 2 additions of substance. Test substances (10 μM) are first pipetted on to the cells and the Ca^2+ inflow is compared with the control (hB1R: Lys-Des-Arg^9-bradykinin 0.5 nM; rB1R: Des-Arg^9-bradykinin 100 nM). The value in % activation based on the Ca^2+ signal after addition of Lys-Des-Arg^9-bradykinin (0.5 nM) or Des-Arg^9-bradykinin (100 nM) is obtained therefrom. After incubation for 10 minutes, 0.5 nM Lys-Des-Arg^9-bradykinin (hB1R) or 100 nM Des-Arg^9-bradykinin (rB1R) are applied and the inflow of Ca^2+ is likewise determined. Antagonists lead to a suppression of the Ca^2+ inflow. % inhibition compared with the maximum inhibition which can be achieved is calculated. The compounds show a good activity on the human and on the rat receptor. The following data were determined by way of example: […]

[2] = target: T2, B1R receptor of the rat (bradykinin 1 receptor) (Rattus norvegicus, UniProt P97583); assay: FLIPR Ca2+ assay (Fluo-4) on CHO K1 cells stably transfected with the B1R gene of the rat; % activation and % inhibition at 10 μM; type: cell-based; conditions: CHO-K1, test substance 10 μM; CHO K1 rB1R cells; Ca2+ inflow after 100 nM Des-Arg9-bradykinin; read-out: B1R antagonism, rat [10 μM] % inhibition
T2 construct: host or cells: CHO K1 cells (rB1R cells)
T2 sequence (P97583 1-337): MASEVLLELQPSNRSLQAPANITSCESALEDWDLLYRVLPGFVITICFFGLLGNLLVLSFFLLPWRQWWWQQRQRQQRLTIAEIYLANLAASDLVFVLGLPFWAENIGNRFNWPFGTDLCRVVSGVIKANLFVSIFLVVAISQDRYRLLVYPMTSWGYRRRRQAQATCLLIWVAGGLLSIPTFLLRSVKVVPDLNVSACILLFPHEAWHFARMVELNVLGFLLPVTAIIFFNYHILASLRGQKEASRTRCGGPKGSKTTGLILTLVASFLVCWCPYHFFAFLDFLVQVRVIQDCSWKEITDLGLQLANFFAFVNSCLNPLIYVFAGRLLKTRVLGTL
Experimental: as §1, §2, §3, §4, §5

Compound	inhibition at 10 µM [1] [%]	inhibition at 10 µM [2] [%]
O=C(CCC1CCCCN1S(=O)(=O)c1cccc(C(F)(F)F)c1)N1CCC(O)(c2ccc(Br)cc2)CC1 (stereo not shown) [Example 123, 1-(4-(4-bromophenyl)-4-hydroxypiperidin-1-yl)-3-(1-(3-(trifluoromethyl)phenylsulfonyl)piperidin-2-yl)propan-1-one]	47.9	54.7
COc1cc(C)c(S(=O)(=O)N2CCCCC2COCC(=O)N2CCC(O)(c3ccc(Cl)cc3)CC2)c(C)c1 (stereo not shown) [Example 242, 1-(4-(4-chlorophenyl)-4-hydroxypiperidin-1-yl)-2-((1-(4-methoxy-2,6-dimethylphenylsulfonyl)piperidin-2-yl)methoxy)ethanone]	101	98.4
O=C(COCC1CCCCN1S(=O)(=O)c1cc(Cl)sc1Cl)N1CCC(O)(c2ccccc2)CC1 (stereo not shown) [Example 271, 2-((1-(2,5-dichlorothiophen-3-ylsulfonyl)piperidin-2-yl)methoxy)-1-(4-hydroxy-4-phenylpiperidin-1-yl)ethanone]	41.9	78.3
O=C(COCC1CCCN(S(=O)(=O)c2c(Cl)cc(Cl)cc2Cl)C1)N1CCC(O)(c2ccccc2)CC1 (stereo not shown) [Example 255, 1-(4-hydroxy-4-phenylpiperidin-1-yl)-2-((1-(2,4,6-trichlorophenylsulfonyl)piperidin-3-yl)methoxy)ethanone]	82.5	73.7
O=C(COC1CCCCC1N(Cc1ccccc1)S(=O)(=O)c1ccc(Cl)c(Cl)c1)N1CCC(O)(c2ccccn2)CC1 (stereo not shown) [Example 95, N-benzyl-3,4-dichloro-N-{2-[2-(4′-hydroxy-3′,4′,5′,6′-tetrahydro-2′H-[2,4′]bipyridinyl-1′-yl)-2-oxo-ethoxy]-cyclohexyl}-phenylsulfonamide]	8.92	-0.33
Cc1cc(Cl)cc(Cl)c1S(=O)(=O)N(C)CCOCC(=O)N1CCC(O)(c2ccc(Cl)cc2)CC1 [Example 104, 2,4-dichloro-N-(2-(2-(4-(4-chlorophenyl)-4-hydroxypiperidin-1-yl)-2-oxoethoxy)ethyl)-N,6-dimethylphenylsulfonamide]	99.7	95.8
O=C(COCC1CCCN1S(=O)(=O)c1c(Cl)cc(C(F)(F)F)cc1Cl)N1CCC(O)(c2ccc(Cl)c(C(F)(F)F)c2)CC1 (stereo not shown) [Example 171, 1-(4-(4-chloro-3-(trifluoromethyl)phenyl)-4-hydroxypiperidin-1-yl)-2-((1-(2,6-dichloro-4-(trifluoromethyl)phenylsulfonyl)pyrrolidin-2-yl)methoxy)ethanone]	0.56	104
COc1cc(C)c(S(=O)(=O)N(CCOCC(=O)N2CCC(O)(c3cccnc3)CC2)Cc2ccccc2)c(C)c1 [Example 130, N-benzyl-N-(2-(2-(4-hydroxy-4-(pyridin-3-yl)piperidin-1-yl)-2-oxoethoxy)ethyl)-4-methoxy-2,6-dimethylphenylsulfonamide]	103	98.6
O=C(COCC1CCCN1S(=O)(=O)c1c(Cl)cccc1Cl)N1CCC(O)(c2ccc(Br)cc2)CC1 (stereo not shown) [Example 219, 1-(4-(4-bromophenyl)-4-hydroxypiperidin-1-yl)-2-((1-(2,6-dichlorophenylsulfonyl)pyrrolidin-2-yl)methoxy)ethanone]	102	101
COc1cc(C)c(S(=O)(=O)N2CCC(OCC(=O)N3CCC(O)(Cc4ccccc4)CC3)CC2)c(C)c1C [Example 8, 1-(4-benzyl-4-hydroxy-piperidin-1-yl)-2-[1-(4-methoxy-2,3,6-trimethyl-phenylsulfonyl)-piperidin-4-yloxy]-ethanone]	97.4	33.3
O=C(COCC1CCCN1S(=O)(=O)c1cc(Cl)sc1Cl)N1CCC(O)(c2ccc(Cl)c(C(F)(F)F)c2)CC1 (stereo not shown) [Example 223, 1-(4-(4-chloro-3-(trifluoromethyl)phenyl)-4-hydroxypiperidin-1-yl)-2-((1-(2,5-dichlorothiophen-3-ylsulfonyl)pyrrolidin-2-yl)methoxy)ethanone]	15.1	99.5
COc1cc(C)c(S(=O)(=O)N(C)CCOCCC(=O)N2CCC(O)(c3cccnc3)CC2)c(C)c1 [Example 133, N-(2-(3-(4-hydroxy-4-(pyridin-3-yl)piperidin-1-yl)-3-oxopropoxy)ethyl)-4-methoxy-N,2,6-trimethylphenylsulfonamide]	84.1	96.1
O=C(COCC1CCc2ccccc2N1S(=O)(=O)c1ccc(Cl)c(Cl)c1)N1CCC(O)(c2cccc(F)c2)CC1 (stereo not shown) [Example 145, 2-((1-(3,4-dichlorophenylsulfonyl)-1,2,3,4-tetrahydroquinolin-2-yl)methoxy)-1-(4-(3-fluorophenyl)-4-hydroxypiperidin-1-yl)ethanone]	–	77.3
O=C(COCC1CCCCN1S(=O)(=O)c1cc(Cl)sc1Cl)N1CCC(O)(c2ccc(Cl)c(C(F)(F)F)c2)CC1 (stereo not shown) [Example 247, 1-(4-(4-chloro-3-(trifluoromethyl)phenyl)-4-hydroxypiperidin-1-yl)-2-((1-(2,5-dichlorothiophen-3-ylsulfonyl)piperidin-2-yl)methoxy)ethanone]	–	99.2
COc1cc(C)c(S(=O)(=O)N2CCCC(COCC(=O)N3CCC(O)(c4ccc(Cl)c(C(F)(F)F)c4)CC3)C2)c(C)c1 (stereo not shown) [Example 253, 1-(4-(4-chloro-3-(trifluoromethyl)phenyl)-4-hydroxypiperidin-1-yl)-2-((1-(4-methoxy-2,6-dimethylphenylsulfonyl)piperidin-3-yl)methoxy)ethanone]	–	79.9
Cc1cc(S(=O)(=O)N2CCCCC2COCC(=O)N2CCC(O)(c3ccc(Cl)c(C(F)(F)F)c3)CC2)c(C)cc1Cl (stereo not shown) [Example 160, 2-((1-(4-chloro-2,5-dimethylphenylsulfonyl)piperidin-2-yl)methoxy)-1-(4-(4-chloro-3-(trifluoromethyl)phenyl)-4-hydroxypiperidin-1-yl)ethanone]	–	105
